This is an account of results in patent US4336263A, “1,4-Cycloalkano-oxazepines, salts thereof and analgesic uses thereof” (priority 1978, dated 1982).

Like-named read-outs stand apart in the source and are kept apart here.

In data set [1] the test system is female mice (NMRI strain). The experiment in a line: animal or person. In kind it is in vivo. Conditions: for ED (100%): Mus musculus, 0.5 h; for ED (100%) / ED 100% (dose which increases the reaction time by 100%): 30 minutes after administration; for Q (enteral activity: quotient of ED 100% for intraperitoneal and oral administration): i.p. ED 100% / oral ED 100%, 30 min; for Maximum action, Δ% (increase in reaction time): maximum increase without fatalities. Here is the method: (§1) The model used for testing the analgesic action was the tail flick test of D'AMOUR and SMITH (J. Pharmacol. 72 (1941), 74-79). In this experiment, the compounds to be tested were administered intraperitoneally or orally, as aqueous solutions (injection volume 10 ml/kg) to groups of 10 female mice (NMRI strain) weighing 20-22 g each.
(§2) Pain reactions are caused before, and 30 minutes after, the administration of the compound, by means of thermal irritation (the tail being exposed to focused heat radiation from a halogen lamp for at most 30 seconds).
(§3) The time until the tail is drawn out of the radiation zone by reflex action is measured, and taken as the reaction time. Its average value, for 670 untreated animals, is 6.5±0.29 sec.
(§4) Analgesic substances increase the reaction time, to an extent depending on the dose. There is a linear relationship between the logarithms of the doses (mg/kg) and of the relative increase in reaction time (Δ%), from which the dose, defined as the ED 100%, which doubles the reaction time can be calculated by means of regression analysis. For a radiation exposure period of at most 30 seconds, the maximum possible increase in the reaction time is about 360%.

The nature of data set [2]: acute lethal dose (LD 50) for intraperitoneal administration. The class given is in vivo. Conditions: for Relative toxicity: Nefopam = 1.00. The source says: The comparatively low toxicity of the novel compounds can also be deduced from the acute lethal dose (LD 50) for intraperitoneal administration (Table 2). The LD 50 values are from about 90% to 240% higher than those of Nefopam.

Data set [3] is described as follows: in vivo. In kind it is in vivo, mice (NMRI strain). Conditions: mouse, in vivo, read-out: treated animals killed. Here is the method:
as §1, §2, §3, §4

The mark [4] stands for this setting: ip, read-out: ED 100% (dose which increases the reaction time by 100%), intraperitoneal administration.
The mark [5] stands for this setting: po, read-out: ED 100% (dose which increases the reaction time by 100%), oral administration.
Setting [6] is: intraperitoneal administration, Nefopam = 1.00.
Where [7] appears, read: intraperitoneal administration, dose of maximum action.
[8] abbreviates: oral administration, Nefopam = 1.00.
[9] abbreviates: oral administration, dose of maximum action.

With `COc1cccc([C@@]23CCCC[C@@H]2CN(C)CCO3)c1` (relative stereo) [Example 3, 4-methyl-9a-(3-methoxyphenyl)-perhydro-1,4-benzoxazepine], the ED (100%) in data set [1] (setting [4]) came to 11.4 mg/kg; in data set [1] (setting [5]), 17 mg/kg. The “Q (enteral activity: quotient of ED 100% for intraperitoneal and oral administration)” value in data set [1] is given as 0.67. Also, the relative activity stood at 0.71 in data set [1] (setting [6]) and 2.73 in data set [1] (setting [8]). Besides, the “Maximum action, mg/kg (dose)” value in data set [1] (setting [7]) was 46.4 mg/kg; in data set [1] (setting [9]) it was 100 mg/kg. In addition, the “Maximum action, Δ% (increase in reaction time)” value in data set [1] (intraperitoneal administration) is 416%; in data set [1] (oral administration), 397%. Further, the Relative toxicity in data set [2] amounted to 0.52. The LD50 in data set [2] (in vivo, ip, read-out: LD 50) was 110 mg/kg.
For `COc1cccc([C@@]23CCC[C@@H]2CN(C)CCO3)c1` (relative stereo) [Example 6], the ED (100%) in data set [1] (setting [4]) came to 4.66 mg/kg; in data set [1] (setting [5]) it was 9.49 mg/kg. The “Q (enteral activity: quotient of ED 100% for intraperitoneal and oral administration)” value in data set [1] was 0.49. Also, the results for the relative activity in data set [1] (setting [6]) and in data set [1] (setting [8]) were 1.73 and 4.89, respectively. The “Maximum action, mg/kg (dose)” value in data set [1] (setting [7]) and in data set [1] (setting [9]) was 46.4 mg/kg each time. The entries for the “Maximum action, Δ% (increase in reaction time)” value in data set [1] (intraperitoneal administration) and in data set [1] (oral administration) were 380% and 364%, respectively. Further, the Relative toxicity in data set [2] came to 0.45. The LD50 in data set [2] (in vivo, ip, read-out: LD 50) came to 127 mg/kg.
With `CC(=O)Oc1cccc([C@@]23CCCC[C@@H]2CN(C)CCO3)c1` (relative stereo) [Example 7 β, 4-Methyl-9a-(3-acetoxyphenyl)-perhydro-1,4-benzoxazepine], the ED (100%) in data set [1] (setting [4]) was 12.6 mg/kg; in data set [1] (setting [5]), 13.1 mg/kg. Also, in data set [1], the “Q (enteral activity: quotient of ED 100% for intraperitoneal and oral administration)” value is on record as 0.96. For the same molecule, the “Maximum action, Δ% (increase in reaction time)” value in data set [1] (intraperitoneal administration) is 275%; in data set [1] (oral administration), 280%. The “Maximum action, mg/kg (dose)” value in data set [1] (mouse, in vivo, ip) amounted to 46.4 mg/kg; in data set [1] (mouse, in vivo, po) it was 100 mg/kg. In addition, the relative activity in data set [1] (mouse, in vivo, ip) was found to be 0.64; in data set [1] (setting [8]) it was 3.54. This molecule also returned a Relative toxicity in data set [2] of 0.30. Moreover, the LD50 in data set [2] (in vivo, ip, read-out: LD 50) amounted to 194 mg/kg.
As to `CN1CCO[C@]2(c3cccc(O)c3)CCCC[C@@H]2C1` (relative stereo) [Example 7, 4-Methyl-9a-(3-hydroxyphenyl)-perhydro-1,4-benzoxazepine], the ED (100%) in data set [1] (setting [4]) worked out at 6.55 mg/kg; in data set [1] (setting [5]), 18.6 mg/kg. Moreover, the “Q (enteral activity: quotient of ED 100% for intraperitoneal and oral administration)” value in data set [1] stood at 0.35. The relative activity in data set [1] (setting [6]) is reported as 1.23; in data set [1] (setting [8]) it was 2.50. In addition, the “Maximum action, mg/kg (dose)” value in data set [1] (setting [7]) and in data set [1] (setting [9]) was 46.4 mg/kg in each case. For the same molecule, the “Maximum action, Δ% (increase in reaction time)” value in data set [1] (intraperitoneal administration) is given as 364%; in data set [1] (oral administration) it was 332%. In data set [2], the Relative toxicity is listed as 0.35. For the same molecule, the LD50 in data set [2] (in vivo, ip, read-out: LD 50) was 165 mg/kg.
Consider `COc1cccc([C@@]23CCCC[C@@H]2CN(C)CCO3)c1` (single isomer, unassigned) [9 (+), (+)-4-Methyl-9a-(3-methoxyphenyl)-perhydro-1,4-benzoxazepine], for which the “Q (enteral activity: quotient of ED 100% for intraperitoneal and oral administration)” value in data set [1] was found to be 0.71. In addition, the “ED 100% (dose which increases the reaction time by 100%)” value in data set [1] (intraperitoneal administration) is given as 16.7 mg/kg; in data set [1] (oral administration), 23.5 mg/kg. Moreover, the relative activity is recorded as 0.48 in data set [1] (setting [6]) and 1.97 in data set [1] (setting [8]). For the same molecule, the “Maximum action, mg/kg (dose)” value in data set [1] (setting [7]) was determined as 46.4 mg/kg; in data set [1] (setting [9]), 100 mg/kg. For the same molecule, the “Maximum action, Δ% (increase in reaction time)” value was determined as 249% in data set [1] (intraperitoneal administration) and 370% in data set [1] (oral administration). In data set [2], the “LD50” value was determined as 110 mg/kg. The molecule also yielded a Relative toxicity in data set [2] of 0.52.
Regarding `COc1cccc([C@@]23CCCC[C@@H]2CN(C)CCO3)c1` (single isomer, unassigned) [9 (-), (-)-4-Methyl-9a-(3-methoxyphenyl)-perhydro-1,4-benzoxazepine], the ED (100%) in data set [1] (setting [4]) came to 11 mg/kg; in data set [1] (setting [5]) it was 17.6 mg/kg. Moreover, the “Q (enteral activity: quotient of ED 100% for intraperitoneal and oral administration)” value in data set [1] is given as 0.63. Moreover, the “Maximum action, Δ% (increase in reaction time)” value in data set [1] (intraperitoneal administration) was 348%; in data set [1] (oral administration), 397%. The “Maximum action, mg/kg (dose)” value in data set [1] (mouse, in vivo, ip) was 46.4 mg/kg; in data set [1] (mouse, in vivo, po), 100 mg/kg. Moreover, the relative activity in data set [1] (mouse, in vivo, ip) worked out at 0.74; in data set [1] (setting [8]), 2.64. The molecule also came in with a Relative toxicity in data set [2] of 0.40. In addition, the LD50 in data set [2] (in vivo, ip, read-out: LD 50) worked out at 145 mg/kg.
Regarding `CN1CCOC(c2ccccc2)c2ccccc2C1` (centres unmarked) [Nefopam, 5-methyl-1-phenyl-3,4,5,6-tetrahydro-1H-benz[f]-2,5-oxazocine, reference compound], the mortality in data set [3] (ip, 46.4 mg/kg administered intraperitoneally) was 60%; in data set [3] (po, 100 mg/kg administered orally), 60%. Also, the animals died in data set [1] (46.4 mg/kg intraperitoneally) and in data set [1] (100 mg/kg orally) was 6 out of 10 animals throughout. The ED (100%) in data set [1] (oral administration, read-out: ED 100% (dose which increases the reaction time by 100%)) turned out to be 46.4 mg/kg; in data set [1] (ip, intraperitoneal administration, read-out: ED 100% (dose which increases the reaction time by 100%)), 8.08 mg/kg. The “Q (enteral activity: quotient of ED 100% for intraperitoneal and oral administration)” value in data set [1] is 0.17. For the same molecule, the “Maximum action, mg/kg (dose)” value in data set [1] (setting [7]) is reported as 21.5 mg/kg; in data set [1] (setting [9]) it was 46.4 mg/kg. In addition, the “Maximum action, Δ% (increase in reaction time)” value in data set [1] (intraperitoneal administration) is given as 192%; in data set [1] (oral administration), 93%. Moreover, the relative activity in data set [1] (setting [8]) is listed as 1.00. Moreover, the Relative toxicity in data set [2] amounted to 1.00. The LD50 in data set [2] (in vivo, ip, read-out: LD 50) is 57.3 mg/kg.
